The text below walks through data of PubChem BioAssay (NCI).

Test systems include ACHN renal; EKVX NSCLC; HCT-15 colon; HOP-62 NSCLC; HT29 colon; IGROV1 ovarian; KM12 colon; MOLT-4 leukemia; NCI-H23 lung; NCI-H460 lung; OVCAR-4 ovarian; OVCAR-5 ovarian; SK-MEL-2 melanoma; SK-MEL-28 melanoma; SN12C renal; TK-10 renal; UACC-257 melanoma; UACC-62 melanoma; UO-31 renal; SW-620 colon.
What all share (assay): inhibition of tumour cell growth, NCI panel, 48 h

Each structure is given as a SMILES string.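 Following 48 hours of exposure in 96-well plates, responses at five concentrations were used to interpolate endpoints linearly. At the TGI there is no net growth.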 Where only a bound is given, the exact number is not on record here.

Take `Cc1cc(S(=O)(=O)NC(=C(C#N)C#N)[n+]2ccc(N(C)C)cc2)c([S-])cc1Cl`: the TGI in the experiment on ACHN renal, in the experiment with EKVX NSCLC, with HCT-15 colon, in the experiment on HOP-62 NSCLC, in the experiment on HT29 colon and in the experiment on IGROV1 ovarian was greater than 100 µM each time. The TGI in the experiment on KM12 colon, in the experiment on MOLT-4 leukemia, in the experiment on NCI-H23 lung, in the experiment on NCI-H460 lung, in the experiment with OVCAR-4 ovarian and with OVCAR-5 ovarian was greater than 100 µM in each case. Besides, the TGI in the experiment on SK-MEL-2 melanoma, with SK-MEL-28 melanoma, in the experiment with SN12C renal, in the experiment with TK-10 renal, in the experiment on UACC-257 melanoma and in the experiment on UACC-62 melanoma was greater than 100 µM in each case. In the experiment with UO-31 renal, this compound showed a TGI greater than 100 µM.

`CNC1C(O)C(NC)C2OC3(O)C(=O)CC(C)OC3OC2C1O` (configuration not stated): the TGI with ACHN renal, in the experiment with EKVX NSCLC, in the experiment with HCT-15 colon, with HOP-62 NSCLC, in the experiment with HT29 colon and in the experiment on IGROV1 ovarian was greater than 100 µM each time. Moreover, the TGI in the experiment with KM12 colon, in the experiment on MOLT-4 leukemia, with NCI-H23 lung, with NCI-H460 lung, in the experiment with OVCAR-4 ovarian and in the experiment on OVCAR-5 ovarian was greater than 100 µM throughout. The TGI in the experiment on SK-MEL-2 melanoma, with SK-MEL-28 melanoma, with SN12C renal, with SW-620 colon, with TK-10 renal and with UACC-257 melanoma was greater than 100 µM in each case. Also, the TGI in the experiment with UACC-62 melanoma and in the experiment with UO-31 renal was greater than 100 µM throughout.

Consider `Cc1cccc(O)c1-c1nnc(CCCCCCCCc2nnc(-c3c(C)cccc3O)n2N)n1N`, for which the TGI in the experiment with ACHN renal was greater than 100 µM; in the experiment on EKVX NSCLC, greater than 100 µM; in the experiment with HCT-15 colon, greater than 100 µM; in the experiment on HOP-62 NSCLC, 62 µM; in the experiment on HT29 colon it was greater than 100 µM; in the experiment with IGROV1 ovarian, greater than 100 µM. The TGI in the experiment with KM12 colon is greater than 100 µM; in the experiment on MOLT-4 leukemia it was greater than 42.1 µM; in the experiment with NCI-H23 lung it was greater than 100 µM; with NCI-H460 lung, greater than 100 µM; in the experiment on OVCAR-4 ovarian, greater than 56.1 µM; in the experiment with OVCAR-5 ovarian, greater than 100 µM. The TGI with SK-MEL-2 melanoma was greater than 83.3 µM; with SK-MEL-28 melanoma it was greater than 100 µM; with SN12C renal, greater than 100 µM; in the experiment on SW-620 colon it was greater than 100 µM; in the experiment on TK-10 renal, greater than 59 µM; with UACC-257 melanoma it was greater than 100 µM. For the same compound, the TGI with UACC-62 melanoma and in the experiment on UO-31 renal was greater than 100 µM each time.

`Cc1ccc(S(=O)(=O)N2c3ccccc3[C@H]3CCc4c([nH]c5ccccc45)[C@H]32)cc1`: the TGI with ACHN renal, in the experiment with EKVX NSCLC, in the experiment on HOP-62 NSCLC, with HT29 colon, in the experiment with IGROV1 ovarian and in the experiment on KM12 colon was greater than 100 µM in each case. Further, the TGI in the experiment with MOLT-4 leukemia, in the experiment with NCI-H23 lung, with NCI-H460 lung, in the experiment with OVCAR-4 ovarian, with OVCAR-5 ovarian and with SK-MEL-2 melanoma was greater than 100 µM in each case. For the same compound, the TGI in the experiment on SK-MEL-28 melanoma, with SN12C renal, with SW-620 colon, in the experiment on TK-10 renal, with UACC-257 melanoma and in the experiment with UACC-62 melanoma was greater than 100 µM throughout. Besides, the TGI with UO-31 renal was greater than 100 µM.

As for `C1CCC(OCc2nnn3c2CCC3)OC1` (configuration not stated), the TGI with ACHN renal, with EKVX NSCLC, in the experiment on HCT-15 colon, in the experiment on HOP-62 NSCLC, in the experiment on HT29 colon and with IGROV1 ovarian was greater than 100 µM throughout. For the same compound, the TGI in the experiment with KM12 colon, in the experiment with MOLT-4 leukemia, in the experiment on NCI-H23 lung, in the experiment on NCI-H460 lung, in the experiment with OVCAR-4 ovarian and in the experiment on OVCAR-5 ovarian was greater than 100 µM in each case. Moreover, the TGI in the experiment on SK-MEL-2 melanoma, in the experiment on SK-MEL-28 melanoma, in the experiment on SN12C renal, in the experiment with SW-620 colon, in the experiment with TK-10 renal and in the experiment with UACC-257 melanoma was greater than 100 µM throughout. Moreover, the TGI in the experiment on UACC-62 melanoma and with UO-31 renal was greater than 100 µM each time.

With `CN1C(=O)CN2C(Cl)(Cl)C2(c2ccccc2F)c2cc([N+](=O)[O-])ccc21` (configuration not stated), the TGI with ACHN renal, in the experiment with EKVX NSCLC, in the experiment on HCT-15 colon, with HOP-62 NSCLC, with HT29 colon and with IGROV1 ovarian was greater than 100 µM throughout. Moreover, the TGI was greater than 100 µM with KM12 colon; 57.2 µM in the experiment with MOLT-4 leukemia; greater than 100 µM in the experiment with NCI-H23 lung; greater than 100 µM in the experiment with NCI-H460 lung; greater than 100 µM with OVCAR-4 ovarian; greater than 100 µM in the experiment on OVCAR-5 ovarian. Further, the TGI with SK-MEL-2 melanoma was greater than 100 µM; with SK-MEL-28 melanoma, greater than 100 µM; with SN12C renal, 80.7 µM; with SW-620 colon, greater than 100 µM; in the experiment on TK-10 renal, greater than 100 µM; in the experiment on UACC-257 melanoma, greater than 100 µM. The TGI in the experiment on UACC-62 melanoma and with UO-31 renal was greater than 100 µM in each case.

On to `O=c1oc2ccccc2n1P(=O)(n1c(=O)oc2ccccc21)n1c(=O)oc2ccccc21`, for which the TGI with ACHN renal, in the experiment on EKVX NSCLC, in the experiment on HOP-62 NSCLC, with HT29 colon, with IGROV1 ovarian and in the experiment on KM12 colon was greater than 100 µM throughout. Further, the TGI with MOLT-4 leukemia, with NCI-H23 lung, in the experiment on NCI-H460 lung, in the experiment on OVCAR-4 ovarian, in the experiment on OVCAR-5 ovarian and in the experiment on SK-MEL-2 melanoma was greater than 100 µM throughout. Besides, the TGI with SK-MEL-28 melanoma, with SN12C renal, in the experiment with SW-620 colon, in the experiment with TK-10 renal, in the experiment on UACC-257 melanoma and in the experiment on UACC-62 melanoma was greater than 100 µM each time. The same compound registered a TGI in the experiment with UO-31 renal greater than 100 µM.
